Laboratory results taken from the supplement of paper PMC10307832.

What was measured:
Experiment in all cases: relative viability (nuclei count vs DMSO), 5 days (fraction); higher = more cells survive
[1] = compound: C[As](C)SC[C@H](NC(=O)CC[C@H](N)C(=O)O)C(=O)NCC(=O)O [Darinaparsin] + CC(C)C[C@H](NC(=O)[C@H](Cc1ccccc1)NC(=O)c1cnccn1)B(O)O [Bortezomib] (partner 0.002 µM)
Summary of the method: (§1)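 Medians of duplicate plates are given as relative viability. That measure is the nuclei count in treated wells divided by the count in vehicle wells. Counts were taken on 4× images of lung cancer cell lines in 1536-well plates, 5 days after pin-tool dosing the day after seeding with one drug alone or a fixed anchor-drug dose plus five library-drug doses (not always all listed) in √10 steps.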

[2] = compound: CC1=C(C=C(C=C1)NC(=O)C2=CC(=CC=C2)C(C)(C)C#N)NC3=CC4=C(C=C3)N=CN(C4=O)C [AZ628] + Nc1nc2[nH]cc(CCc3ccc(C(=O)N[C@@H](CCC(=O)O)C(=O)O)cc3)c2c(=O)[nH]1 [Pemetrexed] (partner 0.2 µM)
Summary of the method: as §1

[3] = compound: C[As](C)SC[C@H](NC(=O)CC[C@H](N)C(=O)O)C(=O)NCC(=O)O [Darinaparsin] + CS(=O)(=O)CCNCc1ccc(-c2ccc3ncnc(Nc4ccc(OCc5cccc(F)c5)c(Cl)c4)c3c2)o1 [Lapatinib] (partner 2 µM)
Summary of the method: as §1

[4] = compound: C[As](C)SC[C@H](NC(=O)CC[C@H](N)C(=O)O)C(=O)NCC(=O)O [Darinaparsin] + Cc1cc(Nc2cc(N3CCN(C)CC3)nc(Sc3ccc(NC(=O)C4CC4)cc3)n2)n[nH]1 [Tozasertib] (partner 0.1 µM)
Summary of the method: as §1

Cell Line	relative viability ([1]; first compound 0.08 µM)	relative viability ([1]; first compound 0.8 µM)	relative viability ([1]; first compound 2.53 µM)	relative viability ([1]; first compound 8 µM)	relative viability ([2]; first compound 0.08 µM)	relative viability ([2]; first compound 0.253 µM)	relative viability ([2]; first compound 0.8 µM)	relative viability ([2]; first compound 2.53 µM)	relative viability ([2]; first compound 8 µM)	relative viability ([3]; first compound 0.08 µM)	relative viability ([3]; first compound 0.8 µM)	relative viability ([3]; first compound 2.53 µM)	relative viability ([3]; first compound 8 µM)	relative viability ([4]; first compound 0.08 µM)	relative viability ([4]; first compound 2.53 µM)	relative viability ([4]; first compound 8 µM)	relative viability ([4]; first compound 0.8 µM)
NCI-H2347	1.18	0.742	0.831	1.16	0.401	0.415	0.354	0.464	0.321	1.23	0.883	0.919	1.1	0.587	0.555	0.469	
NCI-H2126	1.16	1.2	0.892	1.19	0.757	0.665	0.586	0.655	0.588	0.767	0.712	0.622	0.861	0.935	0.69	0.878	0.794
HOP-62	1.31	0.784	1.12	0.671	0.311	0.343	0.305	0.409	0.271	1.12	1.01	0.97	1.29	0.352	0.343	0.354	0.414
NCI-H2085	0.987	0.996	1.07	1.16	0.951	0.971	0.87	0.865	0.772	0.809	0.697	0.776	0.916	0.953	0.78	0.892	0.814
EMC-BAC-2	1.2	0.973	0.997	1.2	0.481	0.494	0.476	0.516	0.589	0.858	0.924	0.949	1.05	0.251	0.299	0.277	0.28
NCI-H2228	1.63	1.12	0.975	1.13	0.348	0.296	0.351	0.355	0.234	1.46	0.869	0.685	1.22	0.217	0.286	0.235	0.217
A-427	1.05	0.977	0.954	1.08	1.12	0.97	1.01	0.957	0.609	1.08	1.06	1.04	1.22	0.2	0.177	0.193	0.215
EPLC-272H	1.07	0.969	0.74	0.9	0.229	0.309	0.265	0.293	0.248	1.02	0.935	0.923	0.93		0.229	0.277	0.308
NCI-H2009	1.1	1.06	0.963	0.845	1.1	1.09	1.05	1	0.464	0.992	0.93	0.888	0.915	0.927	0.731	0.884	0.682
HCC-827	1.12	1.02	1.08	1.15	0.258	0.209	0.256	0.314	0.226	0.198	0.184	0.153	0.176	0.435	0.422	0.491	0.453
NCI-H322M	1.21	1.3	1.04	1.32	0.726	0.664	0.604	0.642	0.558	0.611	0.603	0.52	0.603	0.564	0.423	0.492	0.464
NCI-H1755	1.04	0.94	0.915	1.18	0.421	0.434	0.403	0.579	0.353	1.1	0.981	1.01	1.46	0.576	0.483	0.616	0.471
LU99A	1.33	1.01	1.17	1.21	0.191	0.186	0.215	0.215	0.175	1.03	0.942	0.923	1.22	0.262	0.256	0.243	0.295
HCC-44	1.04	0.861	0.801	1.04	0.629	0.682	0.643	0.706	0.679	1.24	1.04	0.903	1.08	1.21	0.769	0.87	0.927
NCI-H647	1.79	1.17	0.802	1.17	0.201	0.17	0.179	0.161	0.151	1.28	0.926	0.833	1.42	0.0828	0.232	0.385	0.282
NCI-H1734	1.37	0.937	0.854	0.986	0.375	0.423	0.397	0.391	0.34	1.87	1.01	0.951	1.31	0.276	0.256	0.297	0.257
NCI-H1993	1.24	0.875	1.31	1.04	0.631	0.598	0.47	0.488	0.461	0.854	0.736	0.722	0.534	0.598	0.549	0.557	0.585
NCI-H23	1.17	1.19	0.795	1.14	0.616	0.464	0.419	0.45	0.396	1.54	0.999	1.22	1.38	0.372	0.348	0.754	0.333
